US20190338290A1, “TREATMENT OF SARCOMA” (MEMORIAL SLOAN KETTERING CANCER CENTER, priority 2017, published 2019)

Tested on: SS18-SSX / KDM2B co-localization
Experiment: Proximity ligation assay (PLA) of SS18-SSX and KDM2B
Assay type: cell-based, human
Conditions: HS-SY-II cells, SS18-SSX knockdown
Procedure: Indicated synovial sarcoma cell lines were seeded at 3×10^4 cells/well in culture treated 8-well chamber slides and treated as previously described (Laporte et al., 2016). Primary antibodies for PLA were used at 1/1000 dilution: SS18 (Santa-Cruz Biotechnologies, sc-28698), KDM2B (Abnova, H00084678-M09), HA (Santa-Cruz Biotechnologies, sc-805). Proximity ligation was performed utilizing the Duolink® In Situ Red Starter Kit Mouse/Rabbit (Sigma-Aldrich, DUP92101-1KT) according to the manufacturer's protocol. Fluorescence was detected using a Zeiss Axioplan2 microscope at 40×. Images were quantified in triplicate using ImageJ software (NIH) as foci per nucleus, defined as the number of interaction points counted per nucleus. For PLA analysis upon SS18-SSX knockdown, duplex oligo (sense, […]; antisense, […]) SS18-SSX siRNAs were designed to target the SSX portion of SS18-SSX using the Integrated. DNA Technologies RNA interference (RNAi) design tool, and synthesized by Integrated DNA Technologies (IDT) as previously described (Lubieniecka et al., 2008). HS-SY-II cells were seeded in 6-well plates. At 60% confluence, cells were transfected with 50 pmol siSS18-SSX and 9 μL Lipofectamine RNAiMAX transfection reagent (Invitrogen) in Opti-MEM serum free media (Life Technologies). […]

In the case of “SSX targeting siRNA: duplex oligo siRNA (sense CAAGAAGCCAGCAGAGGAATT; antisense UUCCUCUGCUGGCUUCUUGTT) designed to target the SSX portion of SS18-SSX (chemistry not given here)”, the “PLA signal (SS18 and KDM2B antibodies)” value is reported as “abolished”.
